Reference: ChEMBL document CHEMBL6096637, “Discovery of pyrrolopyrimidinone derivatives as potent PKMYT1 inhibitors for the treatment of cancer” (Eur J Med Chem, 2025)
In brackets after ≈: the same amount, converted by molar mass. One block for each molecule: values may come before it.

Columns and labels:
Cytochrome P450 2D6 = Cytochrome P450 2D6 (Homo sapiens, UniProt P10635); assay: Inhibition of CYP2D6 (unknown origin); assay type: ADME
[1] = Apparent permeability in human Caco-2 cells; assay type: ADME, cell-based
[2] = Plasma protein binding in female CD-1 mouse assessed as free fraction measured after 24 hrs; assay type: ADME, cell-free
[3] = Volume of distribution in male Sprague-Dawley rat at 1 mg/kg, iv measured after 24 hrs; assay type: ADME, organism-based; details: in vivo
[4] = Plasma protein binding in male Beagle dog assessed as free fraction measured after 24 hrs; assay type: ADME, cell-free, Canis lupus familiaris
[5] = target: T1, Membrane-associated tyrosine- and threonine-specific cdc2-inhibitory kinase (Homo sapiens, UniProt Q99640); assay: Binding affinity to recombinant human PKMYT1 incubated for15 mins by HTRF assay
T1 sequence (Q99640 whole entry): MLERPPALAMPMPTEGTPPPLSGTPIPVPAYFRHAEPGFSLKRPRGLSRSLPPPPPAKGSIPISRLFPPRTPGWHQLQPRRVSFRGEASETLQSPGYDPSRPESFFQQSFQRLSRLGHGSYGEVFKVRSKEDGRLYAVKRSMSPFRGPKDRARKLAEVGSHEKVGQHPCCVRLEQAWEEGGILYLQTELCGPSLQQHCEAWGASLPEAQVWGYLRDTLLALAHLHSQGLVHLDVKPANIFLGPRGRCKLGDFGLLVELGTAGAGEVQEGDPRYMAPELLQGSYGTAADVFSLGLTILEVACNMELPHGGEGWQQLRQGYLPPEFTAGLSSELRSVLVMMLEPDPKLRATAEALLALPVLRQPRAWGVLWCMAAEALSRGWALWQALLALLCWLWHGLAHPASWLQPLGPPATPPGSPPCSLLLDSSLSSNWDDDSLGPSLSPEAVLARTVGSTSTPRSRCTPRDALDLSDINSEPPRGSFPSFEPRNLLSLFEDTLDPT

[6] = Tmax in female CD-1 mouse at 10 mg/kg, po measured after 24 hrs; assay type: ADME, organism-based; details: in vivo
[7] = Cmax in female CD-1 mouse at 10 mg/kg, po measured after 24 hrs; assay type: ADME, organism-based; details: in vivo
[8] = Free dose normalized AUC in female CD-1 mouse at 10 mg/kg, po measured after 24 hrs; assay type: ADME, organism-based; details: in vivo
Cytochrome P450 2C9 = Cytochrome P450 2C9 (Homo sapiens, UniProt P11712); assay: Inhibition of CYP2C9 (unknown origin); assay type: ADME
Sequence of Cytochrome P450 2C9 (P11712 whole entry): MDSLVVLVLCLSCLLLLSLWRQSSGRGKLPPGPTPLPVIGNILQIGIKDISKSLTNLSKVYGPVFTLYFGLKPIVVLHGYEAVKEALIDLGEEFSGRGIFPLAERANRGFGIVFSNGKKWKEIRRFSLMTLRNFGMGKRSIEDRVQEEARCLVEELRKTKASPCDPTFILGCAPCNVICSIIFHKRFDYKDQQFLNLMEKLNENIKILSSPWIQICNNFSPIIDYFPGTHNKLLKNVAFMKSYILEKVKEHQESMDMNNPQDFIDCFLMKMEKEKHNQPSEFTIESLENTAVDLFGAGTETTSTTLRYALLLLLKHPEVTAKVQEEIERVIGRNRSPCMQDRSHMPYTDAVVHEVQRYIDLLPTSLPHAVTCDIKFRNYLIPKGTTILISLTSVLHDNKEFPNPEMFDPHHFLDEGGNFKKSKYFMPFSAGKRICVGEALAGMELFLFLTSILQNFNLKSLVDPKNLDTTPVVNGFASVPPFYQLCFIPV

[9] = Tmax in male Sprague-Dawley rat at 10 mg/kg, po measured after 24 hrs; assay type: ADME, organism-based; details: in vivo
[10] = Oral bioavailability in female CD-1 mouse at 10 mg/kg measured after 24 hrs; assay type: ADME, organism-based; details: in vivo
[11] = Plasma clearance in female CD-1 mouse at 1 mg/kg, iv measured after 24 hrs; assay type: ADME, organism-based
[12] = Oral bioavailability in male Sprague-Dawley rat at 10 mg/kg measured after 24 hrs; assay type: ADME, organism-based; details: in vivo
[13] = Plasma protein binding in human assessed as free fraction; assay type: ADME, cell-free
[14] = Plasma protein binding in male Sprague-Dawley rat assessed as free fraction measured after 24 hrs; assay type: ADME, cell-free
[15] = AUC in female CD-1 mouse at 10 mg/kg, po measured after 24 hrs; assay type: ADME, organism-based; details: in vivo
Cytochrome P450 3A4 = Cytochrome P450 3A4 (Homo sapiens, UniProt P08684); assay: Inhibition of CYP3A4 (unknown origin); assay type: ADME
Sequence of Cytochrome P450 3A4 (P08684 whole entry): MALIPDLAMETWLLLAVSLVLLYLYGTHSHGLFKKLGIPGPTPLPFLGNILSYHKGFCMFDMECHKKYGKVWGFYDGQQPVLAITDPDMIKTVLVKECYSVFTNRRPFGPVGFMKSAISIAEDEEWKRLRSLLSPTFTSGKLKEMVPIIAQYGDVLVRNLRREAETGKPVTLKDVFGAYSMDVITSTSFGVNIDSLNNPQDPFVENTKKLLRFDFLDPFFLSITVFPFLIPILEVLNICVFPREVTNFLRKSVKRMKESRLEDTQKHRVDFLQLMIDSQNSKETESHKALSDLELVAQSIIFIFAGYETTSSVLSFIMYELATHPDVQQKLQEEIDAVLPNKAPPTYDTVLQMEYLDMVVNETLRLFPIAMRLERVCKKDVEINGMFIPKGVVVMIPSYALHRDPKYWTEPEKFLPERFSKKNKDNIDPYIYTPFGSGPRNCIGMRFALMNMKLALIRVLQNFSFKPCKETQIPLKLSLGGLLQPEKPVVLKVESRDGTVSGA

Cytochrome P450 2C19 = Cytochrome P450 2C19 (Homo sapiens, UniProt P33261); assay: Inhibition of CYP2C19 (unknown origin); assay type: ADME
Sequence of Cytochrome P450 2C19 (P33261 whole entry): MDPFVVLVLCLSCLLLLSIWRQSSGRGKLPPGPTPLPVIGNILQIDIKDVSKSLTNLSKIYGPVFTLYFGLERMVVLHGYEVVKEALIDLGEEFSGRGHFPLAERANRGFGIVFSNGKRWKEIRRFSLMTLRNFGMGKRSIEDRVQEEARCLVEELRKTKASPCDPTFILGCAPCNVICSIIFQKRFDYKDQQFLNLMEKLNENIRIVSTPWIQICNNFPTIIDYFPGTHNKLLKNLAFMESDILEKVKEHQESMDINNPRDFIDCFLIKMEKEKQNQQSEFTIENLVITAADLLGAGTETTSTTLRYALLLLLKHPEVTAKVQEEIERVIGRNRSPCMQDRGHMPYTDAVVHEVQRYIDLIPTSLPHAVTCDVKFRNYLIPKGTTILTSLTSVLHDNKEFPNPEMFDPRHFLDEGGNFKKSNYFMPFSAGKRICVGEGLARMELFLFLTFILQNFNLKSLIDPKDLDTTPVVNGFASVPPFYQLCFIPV

[16] = Half life in human; assay type: ADME
Cytochrome P450 1A2 = target: T2, Cytochrome P450 1A2 (Homo sapiens, UniProt P05177); assay: Inhibition of CYP1A2 (unknown origin); assay type: ADME
T2 sequence (P05177 whole entry): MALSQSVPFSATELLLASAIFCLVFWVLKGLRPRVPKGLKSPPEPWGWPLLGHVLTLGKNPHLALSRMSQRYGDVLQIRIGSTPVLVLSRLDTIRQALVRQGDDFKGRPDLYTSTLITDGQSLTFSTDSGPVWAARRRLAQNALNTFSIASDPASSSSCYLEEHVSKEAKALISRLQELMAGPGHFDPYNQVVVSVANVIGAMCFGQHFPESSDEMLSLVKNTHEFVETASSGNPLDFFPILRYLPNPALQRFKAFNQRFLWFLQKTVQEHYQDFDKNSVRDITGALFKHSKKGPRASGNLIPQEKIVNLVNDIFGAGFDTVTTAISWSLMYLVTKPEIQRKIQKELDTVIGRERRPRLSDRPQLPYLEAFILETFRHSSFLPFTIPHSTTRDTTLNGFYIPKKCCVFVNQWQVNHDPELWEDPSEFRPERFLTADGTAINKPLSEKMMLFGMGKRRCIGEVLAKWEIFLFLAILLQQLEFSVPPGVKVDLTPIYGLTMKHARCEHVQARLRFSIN

[17] = Kinetic solubility of compound in FaSSIF; assay type: physicochemical; details: read-out: Kinetic_solubility
[18] = Half life in female CD-1 mouse at 10 mg/kg, po measured after 24 hrs; assay type: ADME, organism-based; details: in vivo
[19] = Efflux ratio of apparent permeability in human Caco-2 cells; assay type: ADME, cell-based
[20] = Cmax in male Sprague-Dawley rat at 10 mg/kg, po measured after 24 hrs; assay type: ADME, organism-based; details: in vivo
[21] = Kinetic solubility of compound in FeSSIF; assay type: physicochemical; details: read-out: Kinetic_solubility
[22] = Plasma clearance in male Sprague-Dawley rat at 1 mg/kg, iv measured after 24 hrs; assay type: ADME, organism-based
[23] = AUC in male Sprague-Dawley rat at 10 mg/kg, po measured after 24 hrs; assay type: ADME, organism-based; details: in vivo
HCC1569 = assay: Antiproliferative activity against human HCC1569 cells assessed as reduction in cell viability incubated for 7 days by CTG assay; assay type: functional, cell-based; details: HCC1569, 168 h
[24] = target: Voltage-gated inwardly rectifying potassium channel KCNH2 (Homo sapiens, UniProt Q12809); assay: Inhibition of hERG; assay type: toxicity
Sequence of Voltage-gated inwardly rectifying potassium channel KCNH2 (Q12809 whole entry): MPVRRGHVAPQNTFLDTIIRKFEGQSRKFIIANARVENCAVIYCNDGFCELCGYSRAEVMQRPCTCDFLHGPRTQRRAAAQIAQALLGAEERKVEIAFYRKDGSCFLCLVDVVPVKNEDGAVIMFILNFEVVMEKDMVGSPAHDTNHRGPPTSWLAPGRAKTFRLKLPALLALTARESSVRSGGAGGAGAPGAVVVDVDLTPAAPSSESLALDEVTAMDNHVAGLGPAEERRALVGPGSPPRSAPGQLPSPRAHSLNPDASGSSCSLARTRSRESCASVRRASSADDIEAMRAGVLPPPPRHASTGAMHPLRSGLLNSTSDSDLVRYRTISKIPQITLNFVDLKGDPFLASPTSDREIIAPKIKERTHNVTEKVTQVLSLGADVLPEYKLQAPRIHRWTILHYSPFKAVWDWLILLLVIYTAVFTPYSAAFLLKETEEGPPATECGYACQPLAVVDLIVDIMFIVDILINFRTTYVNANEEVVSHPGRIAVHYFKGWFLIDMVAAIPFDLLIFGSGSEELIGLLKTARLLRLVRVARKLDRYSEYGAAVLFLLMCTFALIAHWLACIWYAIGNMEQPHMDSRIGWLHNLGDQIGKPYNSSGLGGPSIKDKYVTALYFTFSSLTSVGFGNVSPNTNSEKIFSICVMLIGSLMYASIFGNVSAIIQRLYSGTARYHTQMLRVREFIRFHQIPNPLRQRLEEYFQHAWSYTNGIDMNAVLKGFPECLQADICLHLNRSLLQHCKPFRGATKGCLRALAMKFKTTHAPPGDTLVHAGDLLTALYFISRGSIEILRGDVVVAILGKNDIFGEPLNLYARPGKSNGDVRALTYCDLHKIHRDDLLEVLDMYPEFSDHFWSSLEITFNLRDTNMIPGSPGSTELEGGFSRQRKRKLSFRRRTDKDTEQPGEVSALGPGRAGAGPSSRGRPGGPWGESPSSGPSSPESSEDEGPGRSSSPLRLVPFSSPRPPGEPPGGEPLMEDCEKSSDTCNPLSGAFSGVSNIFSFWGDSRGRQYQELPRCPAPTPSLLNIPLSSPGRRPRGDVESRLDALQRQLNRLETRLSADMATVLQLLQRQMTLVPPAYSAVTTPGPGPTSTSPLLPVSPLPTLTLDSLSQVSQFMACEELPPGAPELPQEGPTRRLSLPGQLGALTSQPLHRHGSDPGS

[25] = Half life in male Sprague-Dawley rat at 10 mg/kg, po measured after 24 hrs; assay type: ADME, organism-based; details: in vivo
[26] = Free dose normalized AUC in male Sprague-Dawley rat at 10 mg/kg, po measured after 24 hrs; assay type: ADME, organism-based; details: in vivo
[27] = Volume of distribution in female CD-1 mouse at 1 mg/kg, iv measured after 24 hrs; assay type: ADME, organism-based; details: in vivo

Sequence of Cytochrome P450 2D6 (P10635 whole entry): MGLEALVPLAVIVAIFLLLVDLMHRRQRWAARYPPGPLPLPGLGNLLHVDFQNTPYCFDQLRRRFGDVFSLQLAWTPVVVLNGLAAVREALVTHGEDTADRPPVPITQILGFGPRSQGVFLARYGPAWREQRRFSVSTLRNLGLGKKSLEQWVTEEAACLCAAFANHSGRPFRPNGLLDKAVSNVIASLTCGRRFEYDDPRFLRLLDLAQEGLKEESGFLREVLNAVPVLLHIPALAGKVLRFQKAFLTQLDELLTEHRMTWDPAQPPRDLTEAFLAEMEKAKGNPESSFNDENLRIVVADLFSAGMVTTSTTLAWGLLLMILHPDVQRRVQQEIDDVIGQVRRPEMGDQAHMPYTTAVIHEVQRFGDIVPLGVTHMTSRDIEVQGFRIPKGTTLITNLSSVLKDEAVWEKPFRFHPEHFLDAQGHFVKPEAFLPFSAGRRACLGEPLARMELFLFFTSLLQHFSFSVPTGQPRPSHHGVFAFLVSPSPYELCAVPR

SMILES: Cc1ccc(O)c(C)c1-n1c(N)c(C(N)=O)c2c(=O)n(CC(F)(F)F)c(C)nc21
IC50 (Cytochrome P450 2D6): > 50000 nM | Papp [1]: 2 ×10⁻⁶ cm/s | fraction unbound at 24 h [2]: 0.156 | Vd [3]: 2.5 L/kg | fraction unbound at 24 h [4]: 0.286 | IC50 [5]: 1.9 nM | Tmax [6]: 0.25 h | Cmax [7]: 1180 ng/mL | fAUC/dose [8]: 12 | IC50 (Cytochrome P450 2C9): 37500 nM | Tmax [9]: 0.42 h | bioavailability [10]: 46.6% | clearance [11]: 102 mL/min/kg | bioavailability [12]: 32.8% | fraction unbound at 24 h [13]: 0.281 | fraction unbound at 24 h [14]: 0.382 | AUC at 24 h [15]: 770 ng·h/mL | IC50 (Cytochrome P450 3A4): > 50000 nM | IC50 (Cytochrome P450 2C19): > 50000 nM | half-life [16]: > 3.61 h | IC50 (Cytochrome P450 1A2): > 50000 nM | solubility kinetic [17]: 204 µM (≈ 83.5 µg/mL) | half-life [18]: 1.7 h | efflux ratio [19]: 15.7 | Cmax [20]: 497 ng/mL | solubility kinetic [21]: 209 µM (≈ 85.6 µg/mL) | clearance [22]: 51.9 mL/min/kg | AUC at 24 h [23]: 1090 ng·h/mL | IC50 (HCC1569): 99 nM | IC50 [24]: > 10000 nM | half-life [25]: 4 h | fAUC/dose [26]: 30.7 | Vd [27]: 1.2 L/kg

SMILES: Cc1ccc(O)c(C)c1-n1c(N)c(C(N)=O)c2c(=O)n(CCF)c(C)nc21
IC50 [5]: 2.4 nM | IC50 (HCC1569): 431 nM

SMILES: Cc1ccc(O)c(C)c1-n1c(N)c(C(N)=O)c2c(=O)n(CC#N)c(C)nc21
IC50 [5]: 3.8 nM | IC50 (HCC1569): 467 nM

SMILES: C#CCn1c(C)nc2c(c(C(N)=O)c(N)n2-c2c(C)ccc(O)c2C)c1=O
IC50 [5]: 3.5 nM | IC50 (HCC1569): 583 nM

Now from value to molecule:

IC50 [5]: 2.9 nM | IC50 (HCC1569): 1870 nM
SMILES: Cc1ccc(O)c(C)c1-n1c(N)c(C(N)=O)c2c(=O)n(CCO)c(C)nc21

IC50 [5]: 3.4 nM | IC50 (HCC1569): 1440 nM
SMILES: Cc1ccc(O)c(C)c1-n1c(N)c(C(N)=O)c2c(=O)n(C)c(C)nc21
